Measurements from patent publication US20250074876A1, “DIPHENOLIC COMPOUNDS AND PREPARATION METHODS THEREOF” (PURPANA (BEIJING) TECHNOLOGIES CO., LTD., priority 2022, published 2025).

Legend:
[1] = system: melanin cell; experiment: B-2 Inhibition test of cell melanin synthesis (chromogenic method); format: cell-based; conditions: for inhibitory effect on cellular melanin synthesis (in words): at a lower concentration (no more than 0.10% g/m L); for inhibitory effect on cellular melanin synthesis compared with kojic acid: comparison with kojic acid
Method: According to cytotoxicity test data, an inhibition test of cell melanin synthesis was performed within the range allowed by cytotoxicity. The range allowed by cytotoxicity is a range of sample concentration corresponding to a relative cell viability more than 60% in the cytotoxicity test. The samples were grouped according to different concentrations, and a test index was melanin content, a test model was melanin cell, and a detection method is a chromogenic method. Cells at logarithmic growth phase were collected, and the cells were inoculated into 24-well plates at a cell density of 2×10^5 cells/well. After 24 h of incubation in the incubator (37° C., 5% CO2), according to the results of cytotoxicity, the drug was added according to the concentration requirements. The untreated cells were used as a blank control, and three parallel controls were set up in each group. After the drug added, the incubation was continued in the incubator (37° C., 5% CO2) for 48 h. The supernatant was discarded, 1 mL of 1 M NaOH containing 10% DMSO was added, and the plate was placed in a thermostatic oven for incubation at 60° C. for 1 h. After restoring to a room temperature, 200 μL mixed solution of each well was transferred to a 96-well plate, and 1 M NaOH containing 10% DMSO was used as a blank control. The absorbance value was read at 405 nm, and the inhibition rate of cellular melanin synthesis was calculated according to the following equation (5): […]

[2] = system: human melanoma cells (G361); experiment: B-1 Cytotoxicity test (MTT, relative cell viability); format: cell-based; conditions: 24 h
Method: • a) Cell inoculation: human melanoma cells (G361) were inoculated into 96-well plates at a density of 1×10^4 cells/well, and the 96-well plates were placed in an incubator (37° C., 5% CO2) overnight for incubation. • b) Experimental grouping: the experiments were set up with a zeroing group, a control group, a positive control group, and a sample group. In the sample group, each sample was set up with different concentration gradients, and 3 replicate wells were set up under each concentration gradient. • c) Solution preparation: different concentrations of sample working solution were prepared according to the concentrations in Table 4. • d) Drug administration: a drug administration was performed until the cell plating rate in the 96-well plate reaches 40%-60%. In the control group, 200 μL of culture medium containing 10% PBS (Gibco) […] was added to each well; in the positive control group, 200 μL of culture medium containing 10% DMSO was added to each well; in the sample group, 200 μL of culture medium containing the corresponding concentration of sample was added to each well; in the zeroing group, no cell was inoculated and only 200 μL of cell culture medium was added. After the drug administration completed, the 96-well plates were placed in an incubator (37° C., 5% CO2) for incubation. • e) Detection: after incubation for 24 h, the supernatant was discarded, and MTT working solution (0.5 mg/mL) was added and incubated at 37° C. in the dark for 4 h. After incubation, the supernatant was discarded, and 100 μL DMSO was added into each well and the OD value was obtained at 490 nm. • f) Relative cell viability was calculated by the following equation (4): […]

`CC(c1ccc(O)cc1O)N1CCCCC1=O` (centres unmarked) [I-a] was tested, and the “inhibitory effect on cellular melanin synthesis (in words)” value (from here on “inhibitory effect … (in words)”) [1] was “have an inhibitory effect on cellular melanin synthesis” and the “inhibitory effect on cellular melanin synthesis compared with kojic acid” value (from here on “inhibitory effect … compared with kojic acid”) [1] was “superior to that of kojic acid”.

`CCC(c1ccc(O)cc1O)N1CCCC1=O` (centres unmarked) [I-d] was tested, and the “inhibitory effect … (in words)” value [1] was “have an inhibitory effect on cellular melanin synthesis” and the “inhibitory effect … compared with kojic acid” value [1] was “superior to that of kojic acid”.

For `CCCC(c1ccc(O)cc1O)N1CCCCC1=O` (centres unmarked) [I-e], the “inhibitory effect … (in words)” value [1] was “have an inhibitory effect on cellular melanin synthesis”.

For `CCCC(c1ccc(O)cc1O)N1CCCC1=O` (centres unmarked) [I-f], the “inhibitory effect … (in words)” value [1] was “have an inhibitory effect on cellular melanin synthesis”.

For `CC(c1ccc(O)cc1O)N1CCCCCC1=O` (centres unmarked) [I-g], the Relative cell viability ([2]; human, 0.007813 % (g/mL)) was 117.8165%, the Relative cell viability ([2]; human, 0.015625 % (g/mL)) was 120.6987% and the Relative cell viability ([2]; human, 0.03125 % (g/mL)) was 107.8966%. For the same compound, the Relative cell viability ([2]; human, 0.125 % (g/mL)) was 113.8122%, the Relative cell viability ([2]; human, 0.25 % (g/mL)) was 120.9409% and the Relative cell viability ([2]; human, 0.5 % (g/mL)) was 107.9874%. The “inhibitory effect … (in words)” value [1] was “have an inhibitory effect on cellular melanin synthesis”.

In the case of `CC(c1ccc(O)cc1O)N1CCCC1=O` (centres unmarked) [I-h], the “inhibitory effect … (in words)” value [1] is reported as “have an inhibitory effect on cellular melanin synthesis”.

For `CC(c1ccccc1)c1cc(C(C)c2ccccc2)c(O)cc1O` (centres unmarked) [V-a], the “inhibitory effect … (in words)” value [1] was “have an inhibitory effect on cellular melanin synthesis” and the “inhibitory effect … compared with kojic acid” value [1] was “superior to that of kojic acid”.

With `CC(c1cc(C(C)N2CCCC2=O)c(O)cc1O)N1CCCC1=O` (centres unmarked) [V-c] the “inhibitory effect … (in words)” value [1] was “have an inhibitory effect on cellular melanin synthesis”.

In the case of `CC(c1ccccc1)c1ccc(O)cc1O` (centres unmarked) [control group, phenylethyl resorcinol, reference compound], the Relative cell viability ([2]; G361 cells, MTT, sample concentration 0.007813 % (g/mL)) is reported as 106.32%, the Relative cell viability ([2]; G361 cells, MTT, sample concentration 0.015625 % (g/mL)) is reported as 114.68% and the Relative cell viability ([2]; G361 cells, MTT, sample concentration 0.03125 % (g/mL)) is reported as 101.15%. It also gave a Relative cell viability ([2]; G361 cells, MTT, sample concentration 0.125 % (g/mL)) of 100.10%, a Relative cell viability ([2]; G361 cells, MTT, sample concentration 0.25 % (g/mL)) of 106.07% and a Relative cell viability ([2]; G361 cells, MTT, sample concentration 0.5 % (g/mL)) of 96.77%.
